Test results published in article PMC10669656, “ADMET and Solubility Analysis of New 5-Nitroisatine-Based Inhibitors of CDK2 Enzymes” (Biomedicines, 2023).

Experiment: PARIS III toxicological and environmental analysis of solvents (HTPI, EI)
Design: species or system human
Details: binary solvent with water
Source text: The examined chemical compounds are 2-trifluoromethyl-N′-[5-nitro-2-oxo-1,2-dihydro-3H-indol-3-ylidene]benzohydrazide (1), 3-Amino-N′-[5-nitro-2-oxo-1,2-dihydro-3H-indol-3-ylidene]benzohydrazide (2), and 3-nitro-N′-[5-nitro-2-oxo-1,2-dihydro-3H-indol-3-ylidene]benzohydrazide (3). The evaluation of the descriptors defining molecular properties, absorption, metabolism, and toxicity of considered drugs was estimated with the use of ADMETlab 2.0 [9]. The quantitative structure–activity relationship (QSAR) algorithms implemented in used software based on the chemical structures of considered drugs described by SMILES definitions are presented in Figure 1. The method of interpretation and definitions of particular descriptors obtained during the analysis are included in the Results and Discussion sections. The toxicological analysis of solvents was realized with the use of the Solvent Substitution Software Tool, PARIS III [40, 41]. The characteristics of the Human Toxicity Potential by Ingestion (HTPI) of individual solvents and sets of binary solvents analyzed in this work were obtained based on the values of LD50 for particular solvents.
Additionally, the values of the Environmental Index (EI) were also estimated based on a set of eight environmental impact scores, which included, among others, HTPI, terrestrial toxicity potential, and aquatic toxicity potential. In the case of Equation (2), the σj is the weight for considered impact j, the φi,j stands for the value of normalized impact for considered solvent. (2) EIi=∑j=18σjφi,j¯

Compound	% HTPI x1.0 (relative to the pure organic solvent) (x* 0.1) [%]	% HTPI x1.0 (relative to the pure organic solvent) (x* 0.2) [%]	% HTPI x1.0 (relative to the pure organic solvent) (x* 0.3) [%]	% HTPI x1.0 (relative to the pure organic solvent) (x* 0.4) [%]	% HTPI x1.0 (relative to the pure organic solvent) (x* 0.5) [%]	% HTPI x1.0 (relative to the pure organic solvent) (x* 0.6) [%]	% HTPI x1.0 (relative to the pure organic solvent) (x* 0.7) [%]	% HTPI x1.0 (relative to the pure organic solvent) (x* 0.8) [%]	% HTPI x1.0 (relative to the pure organic solvent) (x* 0.9) [%]	% HTPI x1.0 (relative to the pure organic solvent) (x* 1.0) [%]
C[S+](C)[O-] [DMSO, dimethyl sulfoxide]	37.7	55.8	67.8	76.4	83.1	87.7	91.5	95.4	97.7	100.0
CN1CCCC1=O [NMP, N-methyl-2-pyrrolidone]	39.1	58.8	70.8	79.1	84.9	89.4	93.0	95.9	98.1	100.0
